Here are results for 6 molecules from publication PMC4858680, “A platinum-based hybrid drug design approach to circumvent acquired resistance to molecular targeted tyrosine kinase inhibitors” (Scientific Reports, 2016).

SMILES strings stand for the structures. Like-named read-outs stand apart in the source and are kept apart here.

Test [1] concerns the target EPHA5 (Homo sapiens, UniProt P54756). Particulars: 10 μM.
The target of test [2] is T1, EPHB2 (Homo sapiens, UniProt P29323).
T1 sequence (P29323 19-1055): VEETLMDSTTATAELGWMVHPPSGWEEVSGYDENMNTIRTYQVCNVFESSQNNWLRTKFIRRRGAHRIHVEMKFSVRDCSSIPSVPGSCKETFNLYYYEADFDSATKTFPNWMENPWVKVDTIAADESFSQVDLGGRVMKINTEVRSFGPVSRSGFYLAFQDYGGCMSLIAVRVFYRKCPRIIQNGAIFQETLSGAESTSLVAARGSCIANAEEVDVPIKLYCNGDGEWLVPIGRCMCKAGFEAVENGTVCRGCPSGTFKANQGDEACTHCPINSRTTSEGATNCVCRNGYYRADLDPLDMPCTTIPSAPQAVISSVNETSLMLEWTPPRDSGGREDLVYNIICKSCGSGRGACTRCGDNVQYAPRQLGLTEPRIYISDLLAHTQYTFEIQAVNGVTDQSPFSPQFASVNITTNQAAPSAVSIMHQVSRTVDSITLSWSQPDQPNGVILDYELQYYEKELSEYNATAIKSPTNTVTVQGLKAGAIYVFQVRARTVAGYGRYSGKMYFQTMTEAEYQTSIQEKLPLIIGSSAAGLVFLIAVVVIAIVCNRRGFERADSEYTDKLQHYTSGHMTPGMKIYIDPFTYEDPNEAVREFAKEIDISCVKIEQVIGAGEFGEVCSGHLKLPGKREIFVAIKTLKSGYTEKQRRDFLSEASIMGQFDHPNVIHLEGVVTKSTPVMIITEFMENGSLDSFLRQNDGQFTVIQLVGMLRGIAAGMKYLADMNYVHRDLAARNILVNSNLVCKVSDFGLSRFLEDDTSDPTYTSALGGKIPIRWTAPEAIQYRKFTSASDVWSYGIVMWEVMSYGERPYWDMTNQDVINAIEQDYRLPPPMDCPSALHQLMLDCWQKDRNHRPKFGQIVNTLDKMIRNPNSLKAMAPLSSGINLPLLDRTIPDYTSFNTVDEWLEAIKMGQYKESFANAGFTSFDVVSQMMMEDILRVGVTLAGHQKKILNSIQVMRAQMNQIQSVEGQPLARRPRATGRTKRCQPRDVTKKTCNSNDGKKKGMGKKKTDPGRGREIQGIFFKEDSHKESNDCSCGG
Conditions: 10 μM.

Test [3] concerns FLT3(ITD). Particulars: 10 μM.
Test [4] addresses T2, FLT3(K663D) (Homo sapiens, UniProt P36888, K663Q).
T2 sequence (P36888 564-993 K663Q limits assumed): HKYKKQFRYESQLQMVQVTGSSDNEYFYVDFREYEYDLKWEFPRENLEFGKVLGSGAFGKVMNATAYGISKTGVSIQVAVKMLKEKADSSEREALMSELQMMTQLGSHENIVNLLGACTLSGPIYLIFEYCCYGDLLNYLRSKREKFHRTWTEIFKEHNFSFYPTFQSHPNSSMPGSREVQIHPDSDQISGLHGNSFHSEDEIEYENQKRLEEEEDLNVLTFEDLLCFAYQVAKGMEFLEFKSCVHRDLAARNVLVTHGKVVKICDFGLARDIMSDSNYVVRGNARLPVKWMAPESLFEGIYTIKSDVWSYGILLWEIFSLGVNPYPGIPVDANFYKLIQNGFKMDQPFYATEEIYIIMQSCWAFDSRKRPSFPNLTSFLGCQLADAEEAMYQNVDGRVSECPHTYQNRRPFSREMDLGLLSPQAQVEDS

The target of test [5] is T3, FLT3(R834Q) (Homo sapiens, UniProt P36888, R834Q).
T3 sequence (P36888 27-993 R834Q): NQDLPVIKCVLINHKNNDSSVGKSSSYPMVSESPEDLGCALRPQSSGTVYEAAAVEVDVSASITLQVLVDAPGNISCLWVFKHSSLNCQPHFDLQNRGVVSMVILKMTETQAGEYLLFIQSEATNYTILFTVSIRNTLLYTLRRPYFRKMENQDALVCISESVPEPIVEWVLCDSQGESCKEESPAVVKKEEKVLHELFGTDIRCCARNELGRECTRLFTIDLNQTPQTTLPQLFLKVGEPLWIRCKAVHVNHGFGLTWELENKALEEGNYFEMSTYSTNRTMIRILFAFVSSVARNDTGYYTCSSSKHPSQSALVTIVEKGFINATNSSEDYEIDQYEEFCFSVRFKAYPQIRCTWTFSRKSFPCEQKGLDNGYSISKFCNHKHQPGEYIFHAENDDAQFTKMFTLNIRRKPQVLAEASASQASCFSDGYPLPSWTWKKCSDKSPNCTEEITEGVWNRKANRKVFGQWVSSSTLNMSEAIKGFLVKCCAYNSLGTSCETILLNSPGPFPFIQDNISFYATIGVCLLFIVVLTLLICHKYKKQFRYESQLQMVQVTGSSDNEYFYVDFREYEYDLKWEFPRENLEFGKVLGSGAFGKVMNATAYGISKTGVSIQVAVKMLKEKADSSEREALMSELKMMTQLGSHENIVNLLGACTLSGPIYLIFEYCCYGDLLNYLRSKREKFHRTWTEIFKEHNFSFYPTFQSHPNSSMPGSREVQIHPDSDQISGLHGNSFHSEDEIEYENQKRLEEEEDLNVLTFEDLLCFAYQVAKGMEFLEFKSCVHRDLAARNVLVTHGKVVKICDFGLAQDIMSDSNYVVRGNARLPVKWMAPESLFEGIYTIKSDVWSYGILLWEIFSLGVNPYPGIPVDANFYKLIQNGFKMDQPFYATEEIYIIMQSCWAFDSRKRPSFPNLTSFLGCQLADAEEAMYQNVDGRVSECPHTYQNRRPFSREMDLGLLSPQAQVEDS

Test [6] addresses LYN (Homo sapiens, UniProt P07948). Conditions: 10 μM.

Chain of EPHA5 (P54756 25-1037): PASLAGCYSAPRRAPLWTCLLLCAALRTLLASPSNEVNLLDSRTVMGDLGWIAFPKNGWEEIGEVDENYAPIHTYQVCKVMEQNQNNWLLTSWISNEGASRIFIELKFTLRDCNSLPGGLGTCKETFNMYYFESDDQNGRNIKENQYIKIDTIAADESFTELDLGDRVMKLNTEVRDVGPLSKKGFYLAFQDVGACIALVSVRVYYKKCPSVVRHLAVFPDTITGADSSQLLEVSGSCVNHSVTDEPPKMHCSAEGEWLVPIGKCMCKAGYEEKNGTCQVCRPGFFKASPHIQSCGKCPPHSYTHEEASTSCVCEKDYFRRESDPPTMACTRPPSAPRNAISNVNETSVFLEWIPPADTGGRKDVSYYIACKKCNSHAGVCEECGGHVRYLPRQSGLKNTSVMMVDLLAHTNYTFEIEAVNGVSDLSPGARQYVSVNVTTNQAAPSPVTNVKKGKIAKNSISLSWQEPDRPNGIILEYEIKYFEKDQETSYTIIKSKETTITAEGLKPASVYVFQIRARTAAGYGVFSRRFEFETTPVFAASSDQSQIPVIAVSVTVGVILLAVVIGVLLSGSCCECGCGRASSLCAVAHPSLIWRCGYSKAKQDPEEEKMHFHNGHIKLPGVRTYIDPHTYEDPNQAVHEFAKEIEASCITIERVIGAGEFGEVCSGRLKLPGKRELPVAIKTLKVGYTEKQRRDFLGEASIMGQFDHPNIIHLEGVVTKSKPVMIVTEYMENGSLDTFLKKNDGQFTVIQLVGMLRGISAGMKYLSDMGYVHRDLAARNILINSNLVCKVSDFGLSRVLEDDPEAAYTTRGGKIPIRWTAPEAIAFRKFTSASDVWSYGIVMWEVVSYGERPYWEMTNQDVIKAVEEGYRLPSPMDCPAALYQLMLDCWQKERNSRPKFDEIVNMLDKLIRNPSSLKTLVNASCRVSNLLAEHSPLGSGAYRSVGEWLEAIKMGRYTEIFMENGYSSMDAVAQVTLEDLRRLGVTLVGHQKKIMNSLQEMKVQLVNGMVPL
Chain of LYN (P07948 whole entry): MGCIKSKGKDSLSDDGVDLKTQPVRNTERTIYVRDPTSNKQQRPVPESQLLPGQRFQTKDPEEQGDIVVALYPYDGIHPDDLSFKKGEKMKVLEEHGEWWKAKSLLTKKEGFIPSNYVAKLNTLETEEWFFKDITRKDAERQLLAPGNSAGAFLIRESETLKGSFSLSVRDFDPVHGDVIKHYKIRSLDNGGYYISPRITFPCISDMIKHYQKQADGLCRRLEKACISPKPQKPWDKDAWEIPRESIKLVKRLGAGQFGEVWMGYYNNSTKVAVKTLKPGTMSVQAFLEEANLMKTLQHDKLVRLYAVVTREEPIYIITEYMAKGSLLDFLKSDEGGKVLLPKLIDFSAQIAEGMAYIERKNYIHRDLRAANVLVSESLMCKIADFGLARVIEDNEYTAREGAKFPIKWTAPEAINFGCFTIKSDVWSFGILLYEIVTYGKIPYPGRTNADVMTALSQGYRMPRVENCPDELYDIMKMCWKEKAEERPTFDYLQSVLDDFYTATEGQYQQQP

For the molecule `Cc1ccc(NC(=O)c2ccc(CN3CCN(C)CC3)cc2)cc1Nc1nccc(-c2cccnc2)[n+]1[Pt-2]1([Cl])[NH2+]C2CCCCC2[NH2+]1` (centres unmarked) [1b, oxaliplatin-imatinib], the Percent control stood at 100% in test [1]; 95% in test [2]; 74% in test [3]; 84% in test [4] (FLT3(K663D), 10 μM); 94% in test [5] (FLT3(R834Q), 10 μM); 67% in test [6].
`C#Cc1cccc(Nc2c3cc(OCCOC)c(OCCOC)cc3nc[n+]2[Pt@SP2-2]([NH3+])([NH3+])[Cl])c1` [2a, cisplatin-erlotinib]: the Percent control in test [1] amounted to 100%; in test [2] it was 94%; in test [3] it was 79%; in test [4], 67; in test [5], 80; in test [6] it was 69%.
Take `COc1cc2c(Nc3ccc(Br)cc3F)[n+]([Pt-2]3([Cl])[NH2+]C4CCCCC4[NH2+]3)cnc2cc1OCC1CCN(C)CC1` (centres unmarked) [3b, oxaliplatin-vandetanib]: the Percent control in test [1] is reported as 78%; in test [2] it was 69%; in test [4] it was 43; in test [5], 89; in test [6] it was 21%.
In turn, `C#Cc1cccc(Nc2ncnc3cc(OCCOC)c(OCCOC)cc23)c1` [Erlotinib] had a Percent control in test [3] of 7.6%.
As to `Cc1ccc(NC(=O)c2ccc(CN3CCN(C)CC3)cc2)cc1Nc1nccc(-c2cccnc2)n1` [Imatinib, reference compound], the Percent control in test [3] is listed as 38.7%; in test [4] (FLT3(K663D), 10 μM) it was 100%; in test [5] (FLT3(R834Q), 10 μM), 100%; in test [6] it was 74%.
With `COc1cc2c(Nc3ccc(Br)cc3F)ncnc2cc1OCC1CCN(C)CC1` [Vandetanib, reference compound], in test [3], the Percent control came out at 15.3%.
